PMC2923755, “Thermolability of mutant MMACHC protein in the vitamin B12-responsive cblC disorder” (Molecular Genetics and Metabolism, 2010)

Legend:
[1] = UV-visible absorption spectra of free cobalamin; format: physicochemical; conditions: base-on, nm
Protocol: (§1) To determine base-on or base-off binding, 5 μM of the appropriate cobalamin or cobinamde in buffer (100 mM Tris, pH 7.0), was incubated in the dark with 400 μl total of 50 μM MMACHC protein (wild-type or R161Q), prepared in the same buffer, or alone, for 5 min at room temperature. In order to retain the high amounts of protein necessary for these experiments, the His-tag (wt and R161Q) or GST-tag (wt protein) was left on. Absorption spectrum measurements were carried out using a MOS-250 spectrometer and recorded using Bio-Kine 32 v4.20 software.
(§2) In order to determine whether the R161Q mutation interferes with the ability of MMACHC to support this transition, we examined the UV–visible absorption spectra for the proteins bound to AdoCbl, as an example of an alkylcobalamin, as well as for the proteins bound to CNCbl and OHCbl. Each cobalamin was added at a concentration of […] (Fig. 5). To determine whether the cobalamin was base-on or base-off, in the case of CNCbl both base-on and base-off spectra were determined for the free vitamin, as previously reported [[12,14]]. […] Confirming our earlier data, GST-tagged MMACHC-wt bound CNCbl in the base-off state (Table 2). […] Both MMACHC-wt and MMACHC-R161Q bound AdoCbl in the base-off state (Fig. 5; Table 2). […] Finally, neither MMACHC-wt nor MMACHC-R161Q modified OHCbl binding, which retained the base-on profile regardless of the MMACHC species present (Fig. 5; Table 2).

[2] = biological target: T1, His-MMACHC-R161Q (Homo sapiens, UniProt Q9Y4U1, R161Q); test: UV-visible absorption spectra, base-on/base-off binding; conditions: 5 μM cobalamin, 50 μM protein, pH 7.0
T1 construct: made in house; host or cells: E. coli BL21 DE3
T1 sequence (Q9Y4U1 1-282 R161Q): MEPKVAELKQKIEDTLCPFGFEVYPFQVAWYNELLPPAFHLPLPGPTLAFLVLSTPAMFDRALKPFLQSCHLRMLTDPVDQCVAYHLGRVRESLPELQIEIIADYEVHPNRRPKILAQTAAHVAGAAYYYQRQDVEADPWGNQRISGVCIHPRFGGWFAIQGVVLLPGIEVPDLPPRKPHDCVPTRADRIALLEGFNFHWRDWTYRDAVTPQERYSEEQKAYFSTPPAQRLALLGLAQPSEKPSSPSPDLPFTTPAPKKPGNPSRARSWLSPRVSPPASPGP
Protocol: […] In order to retain the high amounts of protein necessary for these experiments, the His-tag (wt and R161Q) or GST-tag (wt protein) was left on. Absorption spectrum measurements were carried out using a MOS-250 spectrometer and recorded using Bio-Kine 32 v4.20 software.
as §2

[3] = biological target: T2, His-MMACHC-wt (Homo sapiens, UniProt Q9Y4U1); test: as above; conditions: 5 μM cobalamin, 50 μM protein, pH 7.0
T2 construct: made in house; host or cells: E. coli BL21 DE3
T2 sequence (Q9Y4U1 1-282): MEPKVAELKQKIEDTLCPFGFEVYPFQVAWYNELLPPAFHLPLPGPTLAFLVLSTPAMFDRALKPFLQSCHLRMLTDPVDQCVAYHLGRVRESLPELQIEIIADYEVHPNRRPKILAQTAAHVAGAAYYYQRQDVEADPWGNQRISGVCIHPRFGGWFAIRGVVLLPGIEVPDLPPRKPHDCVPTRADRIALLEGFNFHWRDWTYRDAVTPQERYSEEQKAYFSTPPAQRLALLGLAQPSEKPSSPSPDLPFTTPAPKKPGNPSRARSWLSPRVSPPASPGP
Protocol: as §1, §2

[4] = biological target: T3, GST-MMACHC-wt (Homo sapiens, UniProt Q9Y4U1); test: as above; conditions: 5 μM cobalamin, 50 μM protein, pH 7.0
T3 construct: made in house
T3 sequence (Q9Y4U1 1-282): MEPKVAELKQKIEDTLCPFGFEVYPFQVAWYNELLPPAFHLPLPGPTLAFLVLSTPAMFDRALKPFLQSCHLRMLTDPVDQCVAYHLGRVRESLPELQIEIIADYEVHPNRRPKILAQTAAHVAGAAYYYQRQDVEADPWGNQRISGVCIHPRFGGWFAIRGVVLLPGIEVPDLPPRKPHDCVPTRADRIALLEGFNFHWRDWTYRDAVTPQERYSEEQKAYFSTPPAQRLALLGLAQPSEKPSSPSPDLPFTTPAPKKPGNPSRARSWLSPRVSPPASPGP
Protocol: as §1, §2

[5] = biological target: T2, His-MMACHC-wt; parameters: method as in PMID 18779575; conditions: cited from earlier work
[6] = biological target: T4, MMACHC-wt (Homo sapiens, UniProt Q9Y4U1); test: Differential scanning fluorimetry (DSF), stabilization by cobalamins; format: binding; conditions: for ΔTm max: Tm at 50 μM ligand minus Tm at 0 μM ligand; for AC50: half-maximal effective ligand concentration for stabilization, 3 μM protein, fit of ΔTm vs ligand concentration
T4 construct: His-tag (N, cleaved yes); made in house; host or cells: E. coli BL21 DE3
T4 sequence (Q9Y4U1 1-282): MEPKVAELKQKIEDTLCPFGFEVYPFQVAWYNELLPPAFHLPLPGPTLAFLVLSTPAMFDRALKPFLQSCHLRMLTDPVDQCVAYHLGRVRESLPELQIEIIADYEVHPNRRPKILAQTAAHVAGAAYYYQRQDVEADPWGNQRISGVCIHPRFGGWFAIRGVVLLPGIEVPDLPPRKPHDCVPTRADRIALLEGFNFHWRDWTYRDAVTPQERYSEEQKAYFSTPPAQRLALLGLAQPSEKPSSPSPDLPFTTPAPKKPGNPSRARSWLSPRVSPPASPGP
Protocol: (§3) DSF was performed and analyzed as described in Niesen et al., with minor modifications. Purified MMACHC proteins were diluted to 0.1 mg/ml (3 μM) in buffer (10 mM HEPES pH 7.5, 0.5 M NaCl, 5% glycerol) with 1:1000 Sypro Orange (Invitrogen) and run in triplicate. The proteins were heated from 5 to 75 °C with a ramp rate of 1 °C/min in a thermocycler (Bio-rad C1000 Thermocycler, CFX96 Real-time system). All graphs were normalized so that minimum fluorescence was set to 0 and maximum fluorescence set to 1. […] Final graphs and AC50’s were generated using Kadeidagraph 4.0 software (Synergy Software, Reading, PA). AC50’s were determined by fitting the ΔTm vs. ligand concentration curves to the equation ΔTm = ΔTm max[S]/(AC50 + [S]) where ΔTm is the change in melting temperature (Tm[protein + ligand] − Tm[protein]), ΔTm max is the maximal change in Tm at saturating (50 μM) ligand concentration and [S] is the ligand concentration.
(§4) Wild-type (MMACHC-wt) and mutant (MMACHC-R161Q) MMACHC were expressed and purified to >95% purity, with His-tag removed, as judged by SDS–PAGE (Fig. 2A). In order to investigate the thermostability of MMACHC we used DSF, a method that measures protein stability and ligand-induced changes in stability [[20,21]]. DSF uses an environmentally sensitive dye, such as Sypro orange, to monitor protein-unfolding caused by heat denaturation. As the protein unfolds, the dye, which has a higher fluorescence quantum yield in nonpolar environments than in aqueous media, binds to hydrophobic regions of the protein, causing a large increase in fluorescence [[22,23]]. Protein stability is expressed as the melting point of the protein (Tm), that is, the transition midpoint of the fluorescence curve, corresponding to the temperature at which half of the protein molecules are folded and half are unfolded. […] Even lower was the stability of MMACHC-R161Q (Tm = 37.1 ± 0.7 °C) (Fig. 2B). The difference in Tm was small but nonetheless significant (p < 0.01). A second difference between the wild-type and mutant proteins was the shape of the unfolding curves, with the unfolding of the mutant protein showing high cooperativity indicating a two-state unfolding mechanism while the unfolding of the wild-type protein stretched over a larger temperature range and comprised two phases (Fig. 2B; also Fig. 3A at 0 μM OHCbl).

[7] = biological target: T5, MMACHC-R161Q (Homo sapiens, UniProt Q9Y4U1, R161Q); test: as above; format: binding; conditions: for ΔTm max: Tm at 50 μM ligand minus Tm at 0 μM ligand; for ΔTm max / AC50: DSF; for AC50: half-maximal effective ligand concentration for stabilization, 3 μM protein, fit of ΔTm vs ligand concentration
T5 construct: His-tag (N, cleaved yes); made in house; host or cells: E. coli BL21 DE3
T5 sequence (Q9Y4U1 1-282 R161Q): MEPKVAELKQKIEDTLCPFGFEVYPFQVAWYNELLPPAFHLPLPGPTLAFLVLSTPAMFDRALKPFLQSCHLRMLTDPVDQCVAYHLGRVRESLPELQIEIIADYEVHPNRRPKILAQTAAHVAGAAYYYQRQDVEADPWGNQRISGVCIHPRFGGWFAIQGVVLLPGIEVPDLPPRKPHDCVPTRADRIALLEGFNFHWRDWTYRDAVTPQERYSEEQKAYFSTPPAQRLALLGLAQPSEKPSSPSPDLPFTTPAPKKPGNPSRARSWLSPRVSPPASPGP
Protocol: as §3, §4

CC1=C2N=C(C=C3N=C(C(C)=C4[N-]C(C(CC(N)=O)C4(C)CCC(=O)NCC(C)OP(=O)([O-])OC4C(CO)OC(n5cnc6cc(C)c(C)cc65)C4O)C4(C)N=C1C(CCC(N)=O)C4(C)CC(N)=O)C(CCC(N)=O)C3(C)C)C(CCC(N)=O)C2(C)CC(N)=O.[CH2-]C1OC(n2cnc3c(N)ncnc32)C(O)C1O.[Co+3] (centres unmarked) [AdoCbl, 5′-deoxyadenosylcobalamin]
α/β-Peak [1]: 524 nm
Base-on/off [2]: Off
α/β-Peak ([2]; nm): 461 nm
Base-on/off [3]: base-off and Off
α/β-Peak ([3]; nm): 460 nm
Base-on/off [4]: Off
α/β-Peak ([4]; nm): 472 nm
binding conformation (base-on/off) [5]: base-off
ΔTm max [6]: 15.5 ± 0.1 °C
AC50 [6]: 900 ± 100 nM
ΔTm max [7]: 13.2 ± 0.1 °C
AC50 [7]: 1100 ± 100 nM
AC50 of R161Q relative to wild-type ([7]; times/fold less effective than with MMACHC-wt): similar

C/C1=C2/[N-]C([C@H](CC(N)=O)[C@@]2(C)CCC(=O)NCC(C)O)[C@]2(C)N=C(/C(C)=C3N=C(/C=C4N=C1[C@@H](CCC(N)=O)C\4(C)C)[C@@H](CCC(N)=O)[C@]\3(C)CC(N)=O)[C@@H](CCC(N)=O)[C@]2(C)CC(N)=O.[C-]#N.[C-]#N.[Co] (some centres unmarked) [Cbi, dicyanocobinamide]
ΔTm max [6]: 9.8 ± 0.2 °C
AC50 [6]: 1300 ± 200 nM
ΔTm max [7]: 6.8 ± 0.2 °C
AC50 [7]: 9100 ± 1600 nM
